# Experiments:
# [1] = MTS assay, cytotoxicity (72 h); assay type: cell-based; conditions: human, HEK293a SHH+ cells, 72 h; for CC50 at 72 h: read-out: MTS Assay (HEK293a SHH+) CC50 (CI95)
# Description: The survival of HEK293a SHH^+ cells is independent of HH signaling,[35] therefore, the cytotoxicity of analogues was tested using the MTS assay to investigate off-target toxicity. In this assay, HEK293a SHH^+ cells were treated with DMSO vehicle or varying concentrations of analogues for 72 h. Subsequently, a mixture of 1-methoxy phenazine methosulfate (PMS) and [3-(4,5-dimethylthiazol-2-yl)-5-(3-carboxymethoxyphenyl)-2-(4-sulfophenyl)-2H-tetrazolium] (MTS) was added to enable quantification of cell number via colorimetric analysis. […] Compounds 3, 17, 19, 32, 34, 38, and 45, which all contain a 2-((2-methylbutyl)amino)acetyl, were toxic to HEK293a SHH^+ cells, as were ureas 26, 40, and 41.
# HEK293a SHH^+ cells were plated at 5000 cells/well in a 96-well plate (Nunc) using a volume of 50 μL/well and cultured for 24 h as described. Cells were treated with 100 μL/well of either DMSO vehicle, Puromycin (2 μg/mL), or stated analogues (0.14–100 μM final) in DMEM supplemented with 10% FBS. After 72 h, 20 μL/well of a mixture of 1-methoxy phenazine methosulfate (PMS) and [3-(4,5-dimethylthiazol-2-yl)-5-(3-carboxymethoxyphenyl)-2-(4-sulfophenyl)-2H-tetrazolium] (MTS) at a ratio of MTS/PMS = 2/0.92 mg/mL in PBS was added and the plates were incubated for 3 h at 37 °C. Subsequently, the absorption at 490 nm was recorded using an EnVision Xcite 2104 (PerkinElmer), and the response was normalized to vehicle control and Puromycin treated samples. Dose response curves were fitted to a “sigmoidal dose response (variable slope)” model using GraphPad Prism 5 (GraphPad Software, Inc.).
# purified HHAT = target: T1, purified HHAT (Homo sapiens, UniProt Q5VTY9); test: Acyl-cLIP assay, inhibition of purified HHAT; assay type: biochemical; conditions: for IC50: purified HHAT, read-out: Acyl-cLIP Assay IC50 (CI95)
# T1 construct: made in house
# T1 sequence (Q5VTY9 whole entry): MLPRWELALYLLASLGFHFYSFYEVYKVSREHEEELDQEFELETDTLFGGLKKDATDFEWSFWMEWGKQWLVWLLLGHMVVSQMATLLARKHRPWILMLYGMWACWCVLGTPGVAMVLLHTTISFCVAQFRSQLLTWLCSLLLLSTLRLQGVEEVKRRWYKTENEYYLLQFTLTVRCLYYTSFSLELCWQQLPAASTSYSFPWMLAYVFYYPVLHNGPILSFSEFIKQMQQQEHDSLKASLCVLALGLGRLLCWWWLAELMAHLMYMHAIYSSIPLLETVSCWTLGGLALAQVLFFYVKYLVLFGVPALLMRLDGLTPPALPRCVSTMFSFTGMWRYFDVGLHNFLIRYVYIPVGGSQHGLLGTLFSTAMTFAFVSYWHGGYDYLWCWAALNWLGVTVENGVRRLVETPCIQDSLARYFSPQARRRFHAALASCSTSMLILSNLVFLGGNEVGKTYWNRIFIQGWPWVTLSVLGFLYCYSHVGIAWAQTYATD
# Description: The inhibitory potency of all 50 compounds against purified HHAT was quantified using the acylation-coupled lipophilic induction of polarization (acyl-cLIP) assay recently developed in our lab, a universally applicable assay for high-throughput analysis of protein–lipid transferases and hydrolases.[31],[40] In brief, in this assay a fluorescently labeled peptide based on the N-terminal sequence of SHH is incubated with N-dodecyl β-D-maltoside (DDM) solubilized purified HHAT, palmitoyl-CoA, and HHAT inhibitors. Binding of the lipidated peptide product to the DDM micelle results in decreased tumbling rate and an increase in polarization of fluorescence emission, enabling facile quantification of HHAT activity. Initially, % HHAT inhibition was determined at 50 μM and 25 μM for all analogues. […] HHAT is a 12-pass TM protein,[14] and we considered whether lipophilicity might bias inhibition; pIC50 values were compared to calculated log D, which indicated no significant correlation (SI, Table S1 and Figure S2). We concluded that lipophilicity is not a general driver of HHAT inhibitory potency.
# The acyl-cLIP assay has been described previously.[40] Briefly, SHH-FAM peptide was diluted in buffer A (100 mM MES, 20 mM NaCl, 1 mM DTT, 1 mM TCEP, 0.1% BSA, pH 6.5) to a concentration of 2 μM. Palmitoyl-CoA (Sigma-Aldrich) was diluted in buffer A to 7.5 μM and recombinant HHAT (obtained by following the published protocol[14]) in buffer B (20 mM HEPES, 350 mM NaCl, 1% DDM, 5% glycerol, pH 7.3) diluted to 44 μg/mL. 1.5 μL of a 50 mM inhibitor DMSO stock was diluted with 18.5 μL of DMSO and further serial diluted (1:1). For each condition, 6 μL of the HHAT working stock and […] of the SHH-peptide working stock were mixed with 3 μL of the corresponding inhibitor concentration or DMSO vehicle. Twelve μL/well of this mixture was split into four wells of a black 384 well plate. To start the reaction, 8 μL of the Pal-CoA working stock were added to each well and fluorescence anisotropy and the total fluorescence recorded on an EnVision Xcite 2104 (PerkinElmer) over 30 min (emission filter 1 = FITC FP P-pol 535; emission filter 2 = FITC S-pol 535; excitation filter: FITC FP 480; measurement height = 6.5 mm; detector gain = 0; high concentration gain). Initial rate constants were determined by linear regression and normalized to DMSO control and samples with buffer B instead of HHAT. IC50 values were extracted from the corresponding dose response curves using a “sigmoidal dose response (variable slope)” model in GraphPad Prism 5 (GraphPad Software, Inc.).
SMILES,inhibition at 25 µM (purified HHAT) [%],inhibition at 50 µM (purified HHAT) [%],IC50 (purified HHAT) [µM],HHAT inhibition in the acyl-cLIP assay (purified HHAT),CC50 at 72 h [1] [µM],"viability at 72 h, 12.5 µM [1] [%]","viability at 72 h, 25 µM [1] [%]"
"CCC(C)CNCC(=O)N1CCc2cc(OC)c(OC)cc2C1c1ccccc1 (centres unmarked) [Compound 44, 1-(6,7-Dimethoxy-1-phenyl-3,4-dihydroisoquinolin-2(1H)-yl)-2-((2-methylbutyl)amino)ethan-1-one]",7 ± 3,8 ± 2,> 100,complete loss of HHAT inhibition,> 100,96 ± 3,95 ± 5
CC(=S)N1CCc2sccc2C1c1ccccc1 (centres unmarked) [Compound 6],44 ± 7,38 ± 2,> 25,,,27 ± 2,29 ± 5
"CC(=O)N1CCCCC1c1ccccc1 (centres unmarked) [Compound 47, 1-(2-Phenylpiperidin-1-yl)ethan-1-one]",-14 ± 2,-3 ± 2,> 25,,> 50,95 ± 2,93 ± 5
"CCC(C)CNCC(=O)N1CCc2sccc2C1C1CCCCC1 (centres unmarked) [Compound 36, 1-(4-Cyclohexyl-6,7-dihydrothieno[3,2-c]pyridin-5(4H)-yl)-2-((2-methylbutyl)amino)ethan-1-one]",24 ± 1,24 ± 14,> 25,loss of activity,,47 ± 4,25 ± 1
"CC(=O)N1CCc2sccc2[C@H]1c1cccc(C)n1 [Compound 27, (S)-1-(4-(6-Methylpyridin-2-yl)-6,7-dihydrothieno[3,2-c]pyridin-5(4H)-yl)ethan-1-one]",4 ± 7,27 ± 6,> 100,no inhibitory activity,> 100,90 ± 4,89 ± 3
c1ccc(C2NCCc3sccc32)cc1 (centres unmarked) [Compound 4],5 ± 3,-16 ± 16,> 25,inactive,,90 ± 2,84 ± 3
"O=C([C@@H]1CCCN1)N1CCc2sccc2C1c1ccccc1 (mixture of isomers) [Compound 9, (S)-4-Phenyl-5-prolyl-4,5,6,7-tetrahydrothieno[3,2-c]pyridine]",4 ± 5,30 ± 2,> 25,,,90 ± 5,81 ± 5
CC(=O)N1CCc2sccc2C1c1ccccc1O (centres unmarked) [Compound 33],24 ± 1,31 ± 1,> 25,,> 100,88 ± 3,87 ± 5
Cc1cccc(C2NCCc3sccc32)n1 (centres unmarked) [Compound 20],9 ± 10,-2 ± 19,> 25,inactive,,82 ± 2,68 ± 3
"C[C@H](N)C(=O)N1CCc2sccc2C1c1ccccc1 (stereo partly drawn) [Compound 7, (2S)-2-Amino-1-(4-phenyl-6,7-dihydrothieno[3,2-c]pyridin-5(4H)-yl)propan-1-one]",42 ± 1,67 ± 3,,,,99 ± 3,74 ± 4
"CC(C)[C@H](N)C(=O)N1CCc2sccc2C1c1ccccc1 (stereo partly drawn) [Compound 8, (2S)-2-Amino-3-methyl-1-(4-phenyl-6,7-dihydrothieno[3,2-c]pyridin-5(4H)-yl)butan-1-one]",9 ± 4,7 ± 11,> 25,,,92 ± 3,92 ± 3
"N[C@@H](Cc1ccccc1)C(=O)N1CCc2sccc2C1c1ccccc1 (stereo partly drawn) [Compound 11, (2S)-2-Amino-3-phenyl-1-(4-phenyl-6,7-dihydrothieno[3,2-c]pyridin-5(4H)-yl)propan-1-one]",-6 ± 3,-2 ± 6,> 25,,,46 ± 2,38 ± 1
"CC(C)CNCC(=O)N1CCc2ccccc2C1c1ccccc1 (stereo in doubt) [Compound 42, (S)-2-((2-Methylpropyl)amino)-1-(1-phenyl-3,4-dihydroisoquinolin-2(1H)-yl)ethan-1-one]",6 ± 2,7 ± 2,> 100,no inhibitory activity,> 100,92 ± 4,91 ± 2
"CCC(C)CNCC(=O)N1CCCCC1c1ccccn1 (centres unmarked) [Compound 50, 2-((2-Methylbutyl)amino)-1-(2-(pyridin-2-yl)piperidin-1-yl)ethan-1-one]",8 ± 1,3 ± 1,> 25,,> 100,88 ± 2,86 ± 2

# Now from value to compound, other results behind:
inhibition at 25 µM (purified HHAT) [%],inhibition at 50 µM (purified HHAT) [%],IC50 (purified HHAT) [µM],HHAT inhibition in the acyl-cLIP assay (purified HHAT),SMILES,CC50 at 72 h [1] [µM],"viability at 72 h, 12.5 µM [1] [%]","viability at 72 h, 25 µM [1] [%]"
-2 ± 3,-3 ± 2,> 25,,"C=CC(=O)N1CCCCC1c1ccccc1 (centres unmarked) [Compound 48, 1-(2-Phenylpiperidin-1-yl)prop-2-en-1-one]",> 100,93 ± 2,90 ± 2
8 ± 1,3 ± 1,> 25,,"C=CC(=O)N1CCCCC1c1ccccn1 (centres unmarked) [Compound 49, 1-(2-(Pyridin-2-yl)piperidin-1-yl)prop-2-en-1-one]",> 100,96 ± 2,89 ± 2
6 ± 6,4 ± 6,> 25,loss of activity,"CCCCCCCC(=O)N1CCc2sccc2C1c1ccccc1 (centres unmarked) [Compound 13, 1-(4-Phenyl-6,7-dihydrothieno[3,2-c]pyridin-5(4H)-yl)octan-1-one]",,47 ± 1,35 ± 2
16 ± 5,2 ± 2,> 25,inactive,Clc1ccc(OCC2NCCc3sccc32)cc1 (centres unmarked) [Compound 1],,95 ± 3,84 ± 4
18 ± 1,21 ± 7,> 25,,"N[C@H](C(=O)N1CCc2sccc2C1c1ccccc1)c1ccccc1 (stereo partly drawn) [Compound 10, (2S)-2-Amino-2-phenyl-1-(4-phenyl-6,7-dihydrothieno[3,2-c]pyridin-5(4H)-yl)ethan-1-one]",,74 ± 3,43 ± 2
6 ± 7,8 ± 7,> 25,loss of activity,CC(=O)N1CCc2sccc2C1C1CCCCC1 (centres unmarked) [Compound 35],,54 ± 2,59 ± 3
-1 ± 5,-5 ± 9,> 25,no inhibitory effect,C=CCN1CCc2sccc2C1c1cccc(C)c1 (centres unmarked) [Compound 15],,81 ± 2,74 ± 2

# From article PMC10823475, “Design, Synthesis, and Evaluation of Inhibitors of Hedgehog Acyltransferase” (Journal of Medicinal Chemistry, 2024)
